Reference: patent US10059663B2, “Aromatic compound and use thereof” (Kyoto Pharmaceutical Industries, Ltd., priority 2013, dated 2018)

Tests used:
[1] = tested on: Mouse bone marrow-derived mesenchymal cell line ST2 cells; assay: Osteoblast differentiation test (alkaline phosphatase activity); assay type: cell-based; details: ST-2, 96 h, at 0.1 μg/mL, 4 days of culture, absorbance at 405 nm, DMSO control = 100%, read-out: alkaline phosphatase activity (increase rate in absorbance, control as 100%)
Protocol: Mouse bone marrow-derived mesenchymal cell line ST2 cells (source of supply: RIKEN) were seeded in α-MEM medium containing 10% fetal bovine serum (source of supply: GIBCO BRL Cat. No. 12000-022) in a 96 well plate at a cell density of 4×10^3 cells/0.1 mL/well, and cultured for 24 hr under the conditions of 37° C., 5% CO2. Then, each test compound was added at a final concentration of 0.001-10 μM, and the final concentration 0.1% (v/v) of DMSO was added to the control. After 4 days of culture, alkaline phosphatase (ALP) activity was measured by the following method.
The medium in the cultured 96 well plate was removed, the cells were washed with PBS buffer (KCl 0.2 g/L, KH2PO4 0.2 g/L, Na2HPO4.12H2O 2.9 g/L, NaCl 8 g/L) (100 μL/well), cell lysate (10 mM MgCl2, 2% (v/v) Triton X-100) (50 μL/well) was added, and the mixture was stirred at room temperature for 3 min. A substrate solution (50 mM diethanolamine (Wako Pure Chemical Industries, Ltd. Cat. No. 099-03112), 20 mM […] (Nacalai Tesque Cat. No. 25019-81)) (50 μL/well) was added, and the mixture was left standing at room temperature for 9 min. 1N NaOH 50 μL/well was added to discontinue the reaction, and the absorbance at 405 nm was measured by a microplate reader (Dainippon Pharmaceutical Co., Ltd.)
An increase rate (%) in the absorbance by the test compound was calculated based on the absorbance of the control as 100%, and the differentiation degree of the osteoblast was evaluated.

female F344 rats = assay: Influence on bone density (ovariectomy, femur, DXA); assay type: in vivo, rat; details: at not more than 10 mg/kg; orally once per day, 6 or 7 days per week, 8 weeks; ovariectomized 12-week-old female F344 rats; femur by DXA
Excerpt: 12-week-old female F344 rats (SLC) underwent ovariectomy or sham surgery under anesthesia. The test compound was suspended in 0.5% methylcellulose solution (Wako Pure Chemical Industries, Ltd. Cat. No. 133-14255) and orally administered once per day, 6 or 7 days per week, from two days after the surgery. A 0.5% methylcellulose solution was orally administered to a control group. At 8 weeks from the administration, they were euthanized by drawing the whole blood from the abdominal artery under anesthesia, and the left and right femurs were excised.
The soft tissues were removed from the excised femurs, and the bone density was measured by DXA device DCS-600R (Aloka Co., Ltd.). The bone density was evaluated for the whole femur as well as the whole divided into three equal portions of proximal end, diaphysis and distal end portion.

SMILES | activity at 0.1 µg/mL [1] [%] | bone density (female F344 rats)
CC(=O)c1ccc(C(N)=O)cc1Oc1ccc(OCCOC2CCOCC2)cc1 [Example 32, 4-acetyl-3-{4-[2-(tetrahydropyran-4-yloxy)ethoxy]phenoxy}benzamide] | ≥ 200 | significantly increased
C[C@@H](O)c1ccc(C(N)=O)cc1Oc1ccc(OCCOC2CCOC2)cc1 (some centres unmarked) [Example 77] | ≥ 200 | significantly increased
CC(O)c1ccc(C(N)=O)cc1Oc1ccc(OCCOC2CCOCC2)cc1 (centres unmarked) [Example 38, 4-(1-hydroxyethyl)-3-{4-[2-(tetrahydropyran-4-yloxy)ethoxy]phenoxy}benzamide] | ≥ 200 | significantly increased
COc1cc(Nc2ccc(N3CC(OCCO)C3)cc2)c(NC(C)=O)cn1 [Example 1, N-(4-{4-[3-(2-hydroxyethoxy)azetidin-1-yl]phenylamino}-6-methoxypyridin-3-yl)acetamide] | ≥ 200 | significantly increased
